Laboratory results: publication PMC9820167, “Design and Synthesis of Conformationally Flexible Scaffold as Bitopic Ligands for Potent D3-Selective Antagonists” (International Journal of Molecular Sciences, 2022)
Where two headings read alike, the source gives them in different places.

Tests used:
[1] = target: Histamine H1 (Homo sapiens, UniProt P35367); experiment: PDSP binding screen
[2] = target: Serotonin 5-HT6 (Homo sapiens, UniProt P50406); experiment: PDSP binding screen
[3] = target: Dopamine D1 (Homo sapiens, UniProt P21728); experiment: PDSP binding screen; conditions: for inhibition at 10 µM: read-out: Ki (nM) or % inhibition at 10 µM: D1
[4] = target: Muscarinic M3 (Homo sapiens, UniProt P20309); experiment: PDSP binding screen; conditions: for inhibition at 10 µM: read-out: Ki (nM) or % inhibition at 10 µM: M3
[5] = target: Norepinephrine transporter (NET) (Homo sapiens, UniProt P23975); experiment: PDSP binding screen; conditions: for inhibition at 10 µM: read-out: Ki (nM) or % inhibition at 10 µM: Norepinephrine transporter (NET)
[6] = target: Histamine H3 (Homo sapiens, UniProt Q9Y5N1); experiment: PDSP binding screen; conditions: for inhibition at 10 µM: read-out: Ki (nM) or % inhibition at 10 µM: H3
[7] = target: T1, Adrenergic alpha1A (Homo sapiens, UniProt P35348); experiment: PDSP binding screen; conditions: for inhibition at 10 µM: read-out: Ki (nM) or % inhibition at 10 µM: alpha1A
T1 sequence (P35348 1-466): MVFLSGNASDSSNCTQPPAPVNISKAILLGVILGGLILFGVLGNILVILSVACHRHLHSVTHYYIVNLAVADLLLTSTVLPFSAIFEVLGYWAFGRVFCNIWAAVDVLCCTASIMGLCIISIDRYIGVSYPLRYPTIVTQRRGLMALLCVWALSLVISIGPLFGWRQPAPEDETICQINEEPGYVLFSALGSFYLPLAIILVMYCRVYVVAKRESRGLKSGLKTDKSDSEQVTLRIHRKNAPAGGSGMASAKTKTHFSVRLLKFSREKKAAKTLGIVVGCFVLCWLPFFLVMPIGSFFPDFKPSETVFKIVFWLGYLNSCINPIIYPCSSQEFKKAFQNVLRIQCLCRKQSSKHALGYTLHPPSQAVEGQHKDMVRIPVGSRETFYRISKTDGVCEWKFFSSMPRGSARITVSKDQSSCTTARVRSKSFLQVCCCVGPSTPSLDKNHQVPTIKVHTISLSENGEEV

[8] = target: T2, Serotonin 5-HT2C (Homo sapiens, UniProt P28335); experiment: PDSP binding screen
T2 sequence (P28335 33-458): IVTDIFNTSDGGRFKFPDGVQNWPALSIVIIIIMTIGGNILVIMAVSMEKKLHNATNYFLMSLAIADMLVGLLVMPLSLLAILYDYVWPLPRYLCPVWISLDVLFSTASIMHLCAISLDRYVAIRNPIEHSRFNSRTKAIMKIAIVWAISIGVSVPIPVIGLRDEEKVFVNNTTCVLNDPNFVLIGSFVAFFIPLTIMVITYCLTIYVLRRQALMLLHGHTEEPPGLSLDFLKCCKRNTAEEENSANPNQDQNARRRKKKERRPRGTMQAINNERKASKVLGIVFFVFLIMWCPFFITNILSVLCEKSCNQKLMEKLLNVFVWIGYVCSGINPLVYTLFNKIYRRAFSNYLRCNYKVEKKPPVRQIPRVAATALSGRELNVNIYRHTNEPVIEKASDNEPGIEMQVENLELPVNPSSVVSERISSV

[9] = target: T3, human D2 receptors (Homo sapiens, UniProt P14416); experiment: Radioligand binding assay with [125I]IABN, D2 receptor
T3 construct: expressed in transfected cells; host or cells: HEK293
Method: Two different assays were used to evaluate the properties of the analogs described above. The receptor binding affinity was measured by radioligand binding assays using [^125I]IABN with D2 or D3 receptors highly expressed HEK293 cells. The functional activity of the analogs was determined using a β-arrestin recruitment assay. […] The results of the antagonist mode assay are reported as IC50 values.
Ki values for D2 and D3 receptors were measured using [^125I]IABN in human D2 and D3 receptors expressed in HEK cells, respectively. A filtration binding assay was used to characterize membrane-associated receptor binding properties. The details for the procedures were described in the literature.

[10] = target: T4, Dopamine D4 (Homo sapiens, UniProt P21917); experiment: PDSP binding screen
T4 sequence (P21917 1-419): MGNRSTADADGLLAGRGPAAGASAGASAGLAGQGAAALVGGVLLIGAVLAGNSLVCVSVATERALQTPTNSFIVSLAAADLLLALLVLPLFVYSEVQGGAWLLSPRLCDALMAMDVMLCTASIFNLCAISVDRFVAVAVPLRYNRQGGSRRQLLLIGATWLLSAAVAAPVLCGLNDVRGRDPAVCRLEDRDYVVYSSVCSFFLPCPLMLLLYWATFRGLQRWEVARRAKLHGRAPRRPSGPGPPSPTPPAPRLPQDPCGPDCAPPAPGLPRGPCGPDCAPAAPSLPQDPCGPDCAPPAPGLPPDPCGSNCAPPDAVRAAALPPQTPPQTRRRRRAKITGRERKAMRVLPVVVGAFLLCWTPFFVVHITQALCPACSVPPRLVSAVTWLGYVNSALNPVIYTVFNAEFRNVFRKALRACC

[11] = target: T5, Serotonin 5-HT1A (Homo sapiens, UniProt P08908); experiment: PDSP binding screen
T5 sequence (P08908 1-422): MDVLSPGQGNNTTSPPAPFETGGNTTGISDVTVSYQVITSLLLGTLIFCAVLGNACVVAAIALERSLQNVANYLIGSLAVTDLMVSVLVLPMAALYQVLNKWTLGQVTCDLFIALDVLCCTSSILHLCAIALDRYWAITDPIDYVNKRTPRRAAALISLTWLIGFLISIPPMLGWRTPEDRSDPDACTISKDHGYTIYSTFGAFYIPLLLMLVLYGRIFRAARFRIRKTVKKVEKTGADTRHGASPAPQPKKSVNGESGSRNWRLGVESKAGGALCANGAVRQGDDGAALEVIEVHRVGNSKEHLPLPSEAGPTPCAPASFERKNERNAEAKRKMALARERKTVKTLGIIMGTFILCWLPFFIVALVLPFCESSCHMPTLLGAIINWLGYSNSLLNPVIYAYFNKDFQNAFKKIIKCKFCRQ

[12] = target: Dopamine D5 (Homo sapiens, UniProt P21918); experiment: PDSP binding screen; conditions: for inhibition at 10 µM: read-out: Ki (nM) or % inhibition at 10 µM: D5
[13] = target: Serotonin 5-HT2B (Homo sapiens, UniProt P41595); experiment: PDSP binding screen
[14] = target: Serotonin 5-HT7A (Homo sapiens, UniProt P34969); experiment: PDSP binding screen; conditions: for inhibition at 10 µM: read-out: Ki (nM) or % inhibition at 10 µM: 5-HT7A
[15] = [125I]IABN, D2 receptors expressed in HEK cells, mean ± SEM, three experiments, HCl salts, read-out: Ki ± SEM (nM) D2

T3 sequence (P14416 whole entry): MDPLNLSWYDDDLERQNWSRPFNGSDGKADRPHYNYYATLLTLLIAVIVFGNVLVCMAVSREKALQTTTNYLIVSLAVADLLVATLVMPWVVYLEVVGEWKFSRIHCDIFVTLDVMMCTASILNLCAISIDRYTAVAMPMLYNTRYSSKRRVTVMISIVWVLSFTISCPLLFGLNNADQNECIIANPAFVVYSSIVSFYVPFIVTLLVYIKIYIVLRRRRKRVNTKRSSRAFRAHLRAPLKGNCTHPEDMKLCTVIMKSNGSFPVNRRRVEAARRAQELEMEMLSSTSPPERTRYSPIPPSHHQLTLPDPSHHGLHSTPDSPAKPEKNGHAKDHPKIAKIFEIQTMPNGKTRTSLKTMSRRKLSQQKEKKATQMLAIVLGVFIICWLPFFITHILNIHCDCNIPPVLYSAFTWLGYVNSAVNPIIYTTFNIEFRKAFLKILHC
Sequence of Dopamine D1 (P21728 whole entry): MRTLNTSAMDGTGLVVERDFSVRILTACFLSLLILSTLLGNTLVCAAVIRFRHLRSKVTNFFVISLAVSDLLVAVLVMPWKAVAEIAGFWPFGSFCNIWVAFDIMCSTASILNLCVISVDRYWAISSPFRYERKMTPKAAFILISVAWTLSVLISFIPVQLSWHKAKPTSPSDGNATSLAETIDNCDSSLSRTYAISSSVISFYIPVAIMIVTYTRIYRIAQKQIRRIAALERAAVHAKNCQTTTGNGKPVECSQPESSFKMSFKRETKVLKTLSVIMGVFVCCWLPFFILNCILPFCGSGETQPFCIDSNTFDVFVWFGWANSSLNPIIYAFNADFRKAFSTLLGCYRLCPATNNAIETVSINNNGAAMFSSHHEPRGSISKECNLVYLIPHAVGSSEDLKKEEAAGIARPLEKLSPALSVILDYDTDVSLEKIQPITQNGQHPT
Sequence of Norepinephrine transporter (NET) (P23975 whole entry): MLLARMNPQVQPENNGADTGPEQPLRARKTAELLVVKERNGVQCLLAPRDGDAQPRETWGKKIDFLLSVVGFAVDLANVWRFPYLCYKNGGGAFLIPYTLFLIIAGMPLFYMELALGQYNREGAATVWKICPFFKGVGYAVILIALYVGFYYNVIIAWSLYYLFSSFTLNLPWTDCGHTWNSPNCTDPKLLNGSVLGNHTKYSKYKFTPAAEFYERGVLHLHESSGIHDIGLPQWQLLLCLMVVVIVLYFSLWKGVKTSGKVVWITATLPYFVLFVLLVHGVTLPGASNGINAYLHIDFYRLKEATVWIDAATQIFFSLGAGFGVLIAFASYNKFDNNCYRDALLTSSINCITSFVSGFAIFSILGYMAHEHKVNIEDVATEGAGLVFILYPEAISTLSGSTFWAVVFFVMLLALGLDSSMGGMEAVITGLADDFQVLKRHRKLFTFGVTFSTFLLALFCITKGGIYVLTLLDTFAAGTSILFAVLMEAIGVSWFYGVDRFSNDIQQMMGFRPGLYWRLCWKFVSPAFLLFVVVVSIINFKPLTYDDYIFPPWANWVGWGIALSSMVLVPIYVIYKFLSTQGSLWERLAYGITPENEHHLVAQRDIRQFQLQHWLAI
Sequence of Histamine H3 (Q9Y5N1 whole entry): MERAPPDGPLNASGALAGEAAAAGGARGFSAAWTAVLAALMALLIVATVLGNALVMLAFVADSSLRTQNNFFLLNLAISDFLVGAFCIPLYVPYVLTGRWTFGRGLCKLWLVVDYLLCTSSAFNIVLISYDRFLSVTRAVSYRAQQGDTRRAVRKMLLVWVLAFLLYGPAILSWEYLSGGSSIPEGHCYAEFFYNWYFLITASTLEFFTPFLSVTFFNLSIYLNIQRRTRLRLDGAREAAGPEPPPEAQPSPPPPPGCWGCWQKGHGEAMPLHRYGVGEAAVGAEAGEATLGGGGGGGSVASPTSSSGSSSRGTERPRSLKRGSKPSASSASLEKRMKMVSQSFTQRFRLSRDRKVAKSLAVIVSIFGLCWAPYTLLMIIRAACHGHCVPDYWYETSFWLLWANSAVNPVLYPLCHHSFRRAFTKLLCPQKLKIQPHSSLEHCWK
Sequence of Dopamine D5 (P21918 whole entry): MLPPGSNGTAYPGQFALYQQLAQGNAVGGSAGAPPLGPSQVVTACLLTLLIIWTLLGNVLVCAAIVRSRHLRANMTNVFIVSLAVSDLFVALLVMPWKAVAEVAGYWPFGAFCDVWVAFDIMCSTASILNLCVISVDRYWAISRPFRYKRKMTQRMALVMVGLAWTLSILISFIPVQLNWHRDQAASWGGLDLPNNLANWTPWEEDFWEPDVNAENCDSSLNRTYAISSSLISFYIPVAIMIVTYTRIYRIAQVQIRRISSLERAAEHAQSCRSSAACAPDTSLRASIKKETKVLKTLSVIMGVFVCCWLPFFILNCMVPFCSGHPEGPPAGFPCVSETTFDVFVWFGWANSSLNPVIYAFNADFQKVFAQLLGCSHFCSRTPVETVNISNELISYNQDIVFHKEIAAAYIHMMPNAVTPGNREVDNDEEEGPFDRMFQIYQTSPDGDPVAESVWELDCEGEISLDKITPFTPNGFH
Sequence of Histamine H1 (P35367 whole entry): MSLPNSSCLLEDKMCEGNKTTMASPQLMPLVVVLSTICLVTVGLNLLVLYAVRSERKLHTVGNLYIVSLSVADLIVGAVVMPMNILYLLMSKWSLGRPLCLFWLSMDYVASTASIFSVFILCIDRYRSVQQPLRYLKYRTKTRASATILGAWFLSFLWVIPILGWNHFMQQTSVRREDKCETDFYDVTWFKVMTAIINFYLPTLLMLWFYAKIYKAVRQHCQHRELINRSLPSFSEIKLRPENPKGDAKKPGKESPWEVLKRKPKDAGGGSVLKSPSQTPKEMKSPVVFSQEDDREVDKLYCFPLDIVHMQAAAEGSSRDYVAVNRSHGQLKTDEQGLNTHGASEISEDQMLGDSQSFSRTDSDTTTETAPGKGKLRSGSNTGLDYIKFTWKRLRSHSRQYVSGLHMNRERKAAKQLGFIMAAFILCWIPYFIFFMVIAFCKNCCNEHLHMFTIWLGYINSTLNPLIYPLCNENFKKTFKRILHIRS
Sequence of Serotonin 5-HT7A (P34969 1-445 isoform P34969-2): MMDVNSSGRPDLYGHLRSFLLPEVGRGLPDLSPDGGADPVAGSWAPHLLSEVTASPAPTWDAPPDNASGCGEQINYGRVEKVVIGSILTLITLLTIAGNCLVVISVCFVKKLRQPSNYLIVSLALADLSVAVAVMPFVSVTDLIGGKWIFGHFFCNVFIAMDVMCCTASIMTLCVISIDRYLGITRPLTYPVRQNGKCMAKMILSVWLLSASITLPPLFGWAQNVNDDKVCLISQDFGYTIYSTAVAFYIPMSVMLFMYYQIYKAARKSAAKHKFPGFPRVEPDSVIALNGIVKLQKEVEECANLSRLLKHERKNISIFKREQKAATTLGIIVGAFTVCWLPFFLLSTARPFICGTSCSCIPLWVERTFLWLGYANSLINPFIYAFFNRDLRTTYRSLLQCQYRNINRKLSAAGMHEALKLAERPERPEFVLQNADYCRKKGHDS
Sequence of Serotonin 5-HT2B (P41595 whole entry): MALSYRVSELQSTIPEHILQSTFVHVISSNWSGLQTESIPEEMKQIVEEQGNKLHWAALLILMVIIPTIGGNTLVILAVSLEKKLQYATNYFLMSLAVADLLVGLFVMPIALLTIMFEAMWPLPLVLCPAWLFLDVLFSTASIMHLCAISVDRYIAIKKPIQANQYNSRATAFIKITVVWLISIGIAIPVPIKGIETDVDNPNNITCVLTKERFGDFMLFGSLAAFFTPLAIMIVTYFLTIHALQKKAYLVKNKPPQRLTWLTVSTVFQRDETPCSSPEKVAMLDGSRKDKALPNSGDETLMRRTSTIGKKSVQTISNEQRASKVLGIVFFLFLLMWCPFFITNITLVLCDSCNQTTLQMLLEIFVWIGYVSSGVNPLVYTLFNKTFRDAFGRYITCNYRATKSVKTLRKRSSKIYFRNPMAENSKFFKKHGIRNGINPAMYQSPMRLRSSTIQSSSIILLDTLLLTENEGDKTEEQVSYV
Sequence of Serotonin 5-HT6 (P50406 whole entry): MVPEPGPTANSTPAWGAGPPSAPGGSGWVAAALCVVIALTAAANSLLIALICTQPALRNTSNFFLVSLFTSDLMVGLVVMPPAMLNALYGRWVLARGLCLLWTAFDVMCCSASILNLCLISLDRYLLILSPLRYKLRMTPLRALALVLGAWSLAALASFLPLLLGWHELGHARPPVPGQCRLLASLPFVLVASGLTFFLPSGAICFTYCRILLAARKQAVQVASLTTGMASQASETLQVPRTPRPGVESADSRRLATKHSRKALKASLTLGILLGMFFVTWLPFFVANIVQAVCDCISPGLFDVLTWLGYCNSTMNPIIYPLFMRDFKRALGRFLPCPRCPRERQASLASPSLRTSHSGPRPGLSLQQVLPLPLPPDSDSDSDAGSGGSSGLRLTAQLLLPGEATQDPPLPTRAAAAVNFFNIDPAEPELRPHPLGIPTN
Sequence of Muscarinic M3 (P20309 whole entry): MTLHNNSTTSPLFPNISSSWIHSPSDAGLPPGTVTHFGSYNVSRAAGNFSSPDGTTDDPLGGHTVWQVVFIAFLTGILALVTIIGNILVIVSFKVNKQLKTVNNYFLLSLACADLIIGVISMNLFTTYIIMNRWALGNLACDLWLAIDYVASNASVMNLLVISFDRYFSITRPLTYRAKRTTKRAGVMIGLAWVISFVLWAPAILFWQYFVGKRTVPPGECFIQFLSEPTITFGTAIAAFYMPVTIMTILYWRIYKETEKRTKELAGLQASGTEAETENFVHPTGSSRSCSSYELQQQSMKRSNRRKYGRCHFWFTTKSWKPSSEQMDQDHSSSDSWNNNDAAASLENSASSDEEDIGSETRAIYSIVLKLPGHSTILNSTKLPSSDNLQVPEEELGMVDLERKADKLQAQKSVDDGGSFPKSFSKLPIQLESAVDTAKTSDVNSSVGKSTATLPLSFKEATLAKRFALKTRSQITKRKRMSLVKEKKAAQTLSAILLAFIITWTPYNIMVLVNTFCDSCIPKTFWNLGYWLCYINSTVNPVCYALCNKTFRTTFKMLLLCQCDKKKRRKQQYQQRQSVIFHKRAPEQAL

| Structure (SMILES) | Ki [1] [µM] | Ki [2] [µM] | inhibition at 10 µM [3] [%] | inhibition at 10 µM [4] [%] | Ki [5] [µM] | Ki [6] [µM] | inhibition at 10 µM [7] [%] | Ki [8] [µM] | Ki [9, 15] [nM] | Ki [10] [µM] | Ki [11] [µM] | inhibition at 10 µM [12] [%] | Ki [13] [µM] | inhibition at 10 µM [14] [%] | Ki [4] [µM] | inhibition at 10 µM [6] [%] | Ki [3] [µM] | Ki [12] [µM] | also measured |
| --- | --- | --- | --- | --- | --- | --- | --- | --- | --- | --- | --- | --- | --- | --- | --- | --- | --- | --- | --- |
| CCN(CCCNC(=O)c1cc2ccccc2[nH]1)CCNC(=O)c1cc(Br)cc(OC)c1OC [21d, N-(3-((2-(5-Bromo-2,3-dimethoxybenzamido)ethyl)(ethyl)amino)propyl)-1H-indole-2-carboxamide] | 0.00095 | 1.63 | < 50 | < 50 | 0.842 | > 10 | < 50 | 2.1 | 148 ± 9 | 0.239 | 0.692 | < 50 | 0.181 | < 50 |  |  |  |  |  |
| CCN(CCCNC(=O)c1ccc2ccccc2c1)CCNC(=O)c1cc(Br)cc(OC)c1OC [21a, N-(3-((2-(5-Bromo-2,3-dimethoxybenzamido)ethyl)(ethyl)amino)propyl)-2-naphthamide] | 1.51 | 0.73 | < 50 |  | 0.391 |  | < 50 | 1.33 | 169 ± 12 | 0.377 | 0.971 | < 50 | 0.118 | < 50 | 1.26 | < 50 |  |  |  |
| CCN(CCCNC(=O)c1ccsc1)CCNC(=O)c1cc(Br)cc(OC)c1OC [21i, N-(3-((2-(5-Bromo-2,3-dimethoxybenzamido)ethyl)(ethyl)amino)propyl)thiophen-e-3-carboxamide] | 0.084 | 2.16 | < 50 | < 50 | 3.2 |  | < 50 | 9.73 | 304 ± 7 | 0.514 | 0.245 | < 50 | 0.269 | < 50 |  | < 50 |  |  |  |
| CCN(CCCNC(=O)c1cn2ccccc2n1)CCNC(=O)c1cc(Br)cc(OC)c1OC [21e, N-(3-((2-(5-Bromo-2,3-dimethoxybenzamido)ethyl)(ethyl)amino)propyl)imidazo[1,2-a]pyridine-2-carboxamide] | 0.675 | 2.33 | < 50 |  |  |  | < 50 | 5.78 | 142 ± 16 |  | 0.575 | < 50 | 0.443 | < 50 | 1.55 | < 50 |  |  | inhibition at 10 µM [5]: < 50%; inhibition at 10 µM ([10]; read-out: Ki (nM) or % inhibition at 10 µM: D4): < 50% |
| CCN(CCCNC(=O)c1cc2ccccc2n1C)CCNC(=O)c1cc(Br)cc(OC)c1OC [21j, N-(3-((2-(5-Bromo-2,3-dimethoxybenzamido)ethyl)(ethyl)amino)propyl)-1-methyl-1H-indole-2-carboxamide] | 1.47 | 1.31 | < 50 | < 50 | 1.1 |  | < 50 | 5.06 | 192 ± 22 | 0.878 | 0.961 | < 50 | 0.183 | < 50 |  | < 50 |  |  |  |
| CCN(CCCNC(=O)c1ccc(-c2ccsc2)cc1)CCNC(=O)c1cc(Br)cc(OC)c1OC [21g, 5-Bromo-N-(2-(ethyl(3-(4-(thiophen-3-yl)benzamido)propyl)amino)ethyl)-2,3-dimethoxybenzamide] | 0.102 | 0.363 |  | < 50 | 1.94 | 4.81 |  | 0.354 | 312 ± 18 | 0.582 | 3.31 |  | 0.189 |  |  |  | 2.01 | 8.69 | Ki [7]: 2.11 µM; Ki [14]: 2.25 µM |
| CCCN(CCCNC(=O)c1ccc(-c2cccs2)cc1)CCNC(=O)c1cc(Br)cc(OC)c1OC [20a, 5-Bromo-2,3-dimethoxy-N-(2-(propyl(3-(4-(thiophen-2-yl)benzamido)propyl)amino)ethyl)benzamide] | 1.36 | 0.258 |  | < 50 | 3.51 |  |  | 2.02 | 259 ± 23 | 0.938 | 0.194 | < 50 | 0.17 | < 50 |  | < 50 | 4.29 |  | Ki [7]: 2.21 µM |
| CCN(CCCNC(=O)c1ccc(-c2ccncc2)cc1)CCNC(=O)c1cc(Br)cc(OC)c1OC [21c, 5-Bromo-N-(2-(ethyl(3-(4-(pyridin-4-yl)benzamido)propyl)amino)ethyl)-2,3-dimethoxybenzamide] | 0.591 | 1.86 | < 50 | < 50 |  | 4.73 | < 50 | 1.5 | 107 ± 5 | 2.18 | 0.509 |  | 0.157 | < 50 |  |  |  | > 10 | inhibition at 10 µM [5]: < 50% |
| CCN(CCCNC(=O)c1ccc(-c2cccs2)cc1)CCNC(=O)c1cc(Br)cc(OC)c1OC [9a, 5-Bromo-N-(2-(ethyl(3-(4-(thiophen-2-yl)benzamido)propyl)amino)ethyl)-2,3-dimethoxybenzamide] | 1.49 | 0.287 |  |  | 0.772 | 5.58 | < 50 | 0.577 |  | 0.579 | 1.74 |  | 0.187 | < 50 | 4.75 |  | 2.4 | 1.47 | Ki [9]: 169 ± 4 nM |
